# Reference: US20150141336A1, “Pancreatic Peptide Compounds and Use” (Novo Nordisk A/S, priority 2012, published 2015)
# Numbered stars: 1 amine (or outer) side, 2 acyl side, 3 side chain; on linkers, the order of the positions; unused ones are H or OH. Side chains are listed from the residue outwards. Peptide text beside a SMILES is read from it. * marks the point of attachment. C18 diacid = O=C(O)CCCCCCCCCCCCCCCCC(=O)*; γGlu = O=C(O)[C@H](CCC(=O)[*:2])N[*:1]; AEEA = NCCOCCOCC(=O)O
# Assay: Assay (II) PK i.v. minipig, in vivo half-life
# Set-up: species or system Göttingen mini-pigs
# Conditions: male, Göttingen, minipig, iv
# Outline: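 Male Göttingen mini-pigs (18–22 kg, n=5) received 6 nmol/kg i.v. via central catheter, formulated in 50 mM K2HPO4, 0.05% tween 80, pH 8.0. EDTA plasma sampled pre-dose to 240 h, quantified by TFC/LC/MS/MS (MRM, range 1-2000 nmol/l); half-life from non-compartmental analysis per animal.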
row,Structure (SMILES),"Half-life minipig, Assay (II) [h]"
1,CC[C@H](C)[C@H](NC(=O)[C@H](Cc1ccc(O)cc1)NC(=O)[C@H](CCCNC(=N)N)NC(=O)[C@H](CCCNC(=N)N)NC(=O)[C@H](CC(C)C)NC(=O)[C@H](CC(=O)O)NC(=O)[C@H](C)NC(=O)[C@H](C)NC(=O)[C@H](Cc1ccc(O)cc1)NC(=O)[C@H](CCC(N)=O)NC(=O)[C@H](C)NC(=O)[C@H](CCSC)NC(=O)[C@H](CCCCNC(=O)COCCOCCNC(=O)COCCOCCNC(=O)CC[C@H](NC(=O)CCCCCCCCCCCCCCCCC(=O)O)C(=O)O)NC(=O)[C@H](CCC(=O)O)NC(=O)[C@@H]1CCCN1C(=O)[C@@H](NC(=O)[C@H](C)NC(=O)[C@H](CC(N)=O)NC(=O)[C@H](CC(=O)O)NC(=O)CNC(=O)[C@@H]1CCCN1C(=O)[C@H](Cc1ccc(O)cc1)NC(=O)[C@@H](NC(=O)[C@@H]1CCCN1C(=O)[C@H](CCC(=O)O)NC(=O)[C@H](CC(C)C)NC(=O)[C@@H]1CCCN1)C(C)C)[C@@H](C)O)C(=O)N[C@@H](CC(N)=O)C(=O)N[C@@H](CCSC)C(=O)N[C@@H](CC(C)C)C(=O)N[C@H](C(=O)N[C@@H](CCCNC(=N)N)C(=O)N1CCC[C@H]1C(=O)N[C@@H](CCCNC(=N)N)C(=O)N[C@@H](Cc1ccc(O)cc1)C(N)=O)[C@@H](C)O [Compound R] (H-PLEPVYPGDNATPEK([AEEA-AEEA-γGlu-C18 diacid])MAQYAADLRRYINMLTRPRY-NH2; N-terminus and C-terminus assumed),40

# Same assay, conditions: male, Göttingen, minipig, iv, Half-life minipig, Assay (II)
row,Structure (SMILES),half-life [h]
1,CC[C@H](C)[C@H](NC(=O)[C@H](Cc1ccc(O)cc1)NC(=O)[C@H](CCCNC(=N)N)NC(=O)[C@H](CCCNC(=N)N)NC(=O)[C@H](CC(C)C)NC(=O)[C@H](CC(=O)O)NC(=O)[C@H](C)NC(=O)[C@H](C)NC(=O)[C@H](Cc1ccc(O)cc1)NC(=O)[C@H](CCC(N)=O)NC(=O)[C@H](C)NC(=O)[C@H](CCSC)NC(=O)[C@H](CCCCNC(=O)COCCOCCNC(=O)COCCOCCNC(=O)CC[C@H](NC(=O)CCCCCCCCCCCCCCCCC(=O)O)C(=O)O)NC(=O)[C@H](CCC(=O)O)NC(=O)[C@@H]1CCCN1C(=O)[C@@H](NC(=O)[C@H](C)NC(=O)[C@H](CC(N)=O)NC(=O)[C@H](CC(=O)O)NC(=O)CNC(=O)[C@@H]1CCCN1C(=O)[C@H](Cc1ccc(O)cc1)NC(=O)[C@@H](NC(=O)[C@@H]1CCCN1C(=O)[C@H](CCC(=O)O)NC(=O)[C@H](CC(C)C)NC(=O)[C@@H]1CCCN1)C(C)C)[C@@H](C)O)C(=O)N[C@@H](CC(N)=O)C(=O)N[C@@H](CCSC)C(=O)N[C@@H](CC(C)C)C(=O)N[C@H](C(=O)N[C@@H](CCCNC(=N)N)C(=O)N1CCC[C@H]1C(=O)N[C@@H](CCCNC(=N)N)C(=O)N[C@@H](Cc1ccc(O)cc1)C(N)=O)[C@@H](C)O [Compound R] (H-PLEPVYPGDNATPEK([AEEA-AEEA-γGlu-C18 diacid])MAQYAADLRRYINMLTRPRY-NH2; N-terminus and C-terminus assumed),44
2,CC[C@H](C)[C@H](NC(=O)[C@H](Cc1ccc(O)cc1)NC(=O)[C@H](CCCNC(=N)N)NC(=O)[C@H](CCCNC(=N)N)NC(=O)[C@H](CC(C)C)NC(=O)[C@H](CC(=O)O)NC(=O)[C@H](C)NC(=O)[C@H](C)NC(=O)[C@H](Cc1ccc(O)cc1)NC(=O)[C@H](CCC(N)=O)NC(=O)[C@H](C)NC(=O)[C@H](CCSC)NC(=O)[C@H](CCC(N)=O)NC(=O)[C@H](CCC(=O)O)NC(=O)[C@@H]1CCCN1C(=O)[C@@H](NC(=O)[C@H](C)NC(=O)[C@H](CC(N)=O)NC(=O)[C@H](CC(=O)O)NC(=O)CNC(=O)[C@@H]1CCCN1C(=O)[C@H](Cc1ccc(O)cc1)NC(=O)[C@@H](NC(=O)[C@@H]1CCCN1C(=O)[C@H](CCC(=O)O)NC(=O)[C@@H](N)CC(C)C)C(C)C)[C@@H](C)O)C(=O)N[C@@H](CC(N)=O)C(=O)N[C@@H](CCSC)C(=O)N[C@@H](CC(C)C)C(=O)N[C@H](C(=O)N[C@@H](CCCCNC(=O)COCCOCCNC(=O)COCCOCCNC(=O)CC[C@H](NC(=O)CCCCCCCCCCCCCCCCC(=O)O)C(=O)O)C(=O)N1CCC[C@H]1C(=O)N[C@@H](CCCNC(=N)N)C(=O)N[C@@H](Cc1ccc(O)cc1)C(N)=O)[C@@H](C)O [AI] (H-LEPVYPGDNATPEQMAQYAADLRRYINMLTK([AEEA-AEEA-γGlu-C18 diacid])PRY-NH2; N-terminus and C-terminus assumed),45
3,CC[C@H](C)[C@H](NC(=O)[C@H](Cc1ccc(O)cc1)NC(=O)[C@H](CCCNC(=N)N)NC(=O)[C@H](CCCNC(=N)N)NC(=O)[C@H](CC(C)C)NC(=O)[C@H](CC(=O)O)NC(=O)[C@H](C)NC(=O)[C@H](C)NC(=O)[C@H](Cc1ccc(O)cc1)NC(=O)[C@H](CCC(N)=O)NC(=O)[C@H](C)NC(=O)[C@H](CCSC)NC(=O)[C@H](CCC(N)=O)NC(=O)[C@H](CCC(=O)O)NC(=O)[C@@H]1CCCN1C(=O)[C@H](CCCCNC(=O)COCCOCCNC(=O)COCCOCCNC(=O)CC[C@H](NC(=O)CCCCCCCCCCCCCCCCC(=O)O)C(=O)O)NC(=O)[C@H](C)NC(=O)[C@H](CC(N)=O)NC(=O)[C@H](CC(=O)O)NC(=O)CNC(=O)[C@@H]1CCCN1C(=O)[C@H](Cc1ccc(O)cc1)NC(=O)[C@@H](NC(=O)[C@@H]1CCCN1C(=O)[C@H](CCC(=O)O)NC(=O)[C@@H](N)CC(C)C)C(C)C)C(=O)N[C@@H](CC(N)=O)C(=O)N[C@@H](CCSC)C(=O)N[C@@H](CC(C)C)C(=O)N[C@H](C(=O)N[C@@H](CCCNC(=N)N)C(=O)N1CCC[C@H]1C(=O)N[C@@H](CCCNC(=N)N)C(=O)N[C@@H](Cc1ccc(O)cc1)C(N)=O)[C@@H](C)O [Compound BC] (H-LEPVYPGDNAK([AEEA-AEEA-γGlu-C18 diacid])PEQMAQYAADLRRYINMLTRPRY-NH2; N-terminus and C-terminus assumed),16
4,CC[C@H](C)[C@H](NC(=O)[C@H](Cc1ccc(O)cc1)NC(=O)[C@H](CCCNC(=N)N)NC(=O)[C@H](CCCNC(=N)N)NC(=O)[C@H](CC(C)C)NC(=O)[C@H](CC(=O)O)NC(=O)[C@H](C)NC(=O)[C@H](C)NC(=O)[C@H](Cc1ccc(O)cc1)NC(=O)[C@H](CCC(N)=O)NC(=O)[C@H](C)NC(=O)[C@H](CCSC)NC(=O)[C@H](CCC(N)=O)NC(=O)[C@H](CCC(=O)O)NC(=O)[C@@H]1CCCN1C(=O)[C@@H](NC(=O)[C@H](C)NC(=O)[C@H](CC(N)=O)NC(=O)[C@H](CC(=O)O)NC(=O)CNC(=O)[C@@H]1CCCN1C(=O)[C@H](Cc1ccc(O)cc1)NC(=O)[C@@H](NC(=O)[C@@H]1CCCN1C(=O)[C@H](CCC(=O)O)NC(=O)[C@H](CCCCNC(=O)COCCOCCNC(=O)COCCOCCNC(=O)CC[C@H](NC(=O)CCCCCCCCCCCCCCCCC(=O)O)C(=O)O)NC(=O)[C@@H]1CCCN1)C(C)C)[C@@H](C)O)C(=O)N[C@@H](CC(N)=O)C(=O)N[C@@H](CCSC)C(=O)N[C@@H](CC(C)C)C(=O)N[C@H](C(=O)N[C@@H](CCCNC(=N)N)C(=O)N1CCC[C@H]1C(=O)N[C@@H](CCCNC(=N)N)C(=O)N[C@@H](Cc1ccc(O)cc1)C(N)=O)[C@@H](C)O [Compound AE],45
5,CC[C@H](C)[C@H](NC(=O)[C@H](Cc1ccc(O)cc1)NC(=O)[C@H](CCCNC(=N)N)NC(=O)[C@H](CCCNC(=N)N)NC(=O)[C@H](CC(C)C)NC(=O)[C@H](CC(=O)O)NC(=O)[C@H](C)NC(=O)[C@H](C)NC(=O)[C@H](Cc1ccc(O)cc1)NC(=O)[C@H](CCC(N)=O)NC(=O)[C@H](C)NC(=O)[C@H](CCSC)NC(=O)[C@H](CCC(N)=O)NC(=O)[C@H](CCC(=O)O)NC(=O)[C@@H]1CCCN1C(=O)[C@@H](NC(=O)[C@H](C)NC(=O)[C@H](CC(N)=O)NC(=O)[C@H](CC(=O)O)NC(=O)CNC(=O)[C@@H]1CCCN1C(=O)[C@H](Cc1ccc(O)cc1)NC(=O)[C@@H](NC(=O)[C@@H]1CCCN1C(=O)[C@H](CCC(=O)O)NC(=O)[C@@H](N)CC(C)C)C(C)C)[C@@H](C)O)C(=O)N[C@@H](CCCCNC(=O)COCCOCCNC(=O)COCCOCCNC(=O)CC[C@H](NC(=O)CCCCCCCCCCCCCCCCC(=O)O)C(=O)O)C(=O)N[C@@H](CCSC)C(=O)N[C@@H](CC(C)C)C(=O)N[C@H](C(=O)N[C@@H](CCCNC(=N)N)C(=O)N1CCC[C@H]1C(=O)N[C@@H](CCCNC(=N)N)C(=O)N[C@@H](Cc1ccc(O)cc1)C(N)=O)[C@@H](C)O [Compound AM] (H-LEPVYPGDNATPEQMAQYAADLRRYIK([AEEA-AEEA-γGlu-C18 diacid])MLTRPRY-NH2; N-terminus and C-terminus assumed),70
